Data published in patent US9428519B2, “Acylated derivative of homoharringtonine, preparation method therefor, and application thereof” (HANGZHOU BENSHENG PHARMACEUTICAL CO., LTD., priority 2011, dated 2016).
Converted amounts (≈) assume the structure as drawn.

Experiments:
[1] = system: H9 (acute lymphoblastic leukemia, ALL); assay: MTT growth inhibition of leukemia cells, 72 h; assay type: cell-based, human; conditions: MTT
Source text: (§1) Leukemia cell lines: leukemia cell lines: K562/adr (drug-resistant, chronic myeloid leukemia, CML), NB4 (acute promyelocytic leukemia, AML), Kasumi-1 (acute myeloid leukemia M2 type, AML-M2), Jurkat (acute lymphoblastic leukemia, ALL), all of which are donated by Cancer Research Institute of Zhejiang University, China; and H9 (acute lymphoblastic leukemia, ALL), which is purchased from China Center for Type Culture Collection (CCTCC).
(§2) Reagents: The standard sample of homoharringtonine (HHT) is purchased from Taihua Natural Plant Pharmaceutical Co., Ltd., Shaanxi, China, the homoharringtonine derivatives of the present invention.
(§3) Obtaining 6000 well-growing leukemia cells and inoculating them into wells of a 96-well cell culture plate. The culture medium is the 1640 cell culture medium containing 10% fetal bovine serum. After adding the homoharringtonine derivatives of different concentrations and mixing uniformly, placing the plate in a carbon dioxide cell incubator (5% CO2) at 37° C. and incubated for 72 hours. Then the viable cell concentration is determined by the MTT method. In this experiment, the cell viability in control group (not treated with any compound) is set as 100%. On such basis, the cell viability (%) after treatment and the 50% inhibiting concentration of the compound for the leukemia cell growth at 72 hours (IC50 value of 72 hours) are calculated.

[2] = system: Jurkat (acute lymphoblastic leukemia, ALL); assay: MTT growth inhibition of leukemia cells, 72 h; assay type: cell-based, human
Source text: as §1, §2, §3

[3] = system: K562/adr (drug-resistant, chronic myeloid leukemia, CML); assay: MTT growth inhibition of leukemia cells, 72 h; assay type: cell-based, human; conditions: MTT
Source text: as §1, §2, §3

[4] = system: Kasumi-1 (acute myeloid leukemia M2 type, AML-M2); assay: MTT growth inhibition of leukemia cells, 72 h; assay type: cell-based, human; conditions: MTT
Source text: as §1, §2, §3

[5] = system: NB4 (acute promyelocytic leukemia, AML); assay: MTT growth inhibition of leukemia cells, 72 h; assay type: cell-based, human; conditions: MTT
Source text: as §1, §2, §3

[6] = system: RPMI8226 (multiple myeloma); assay: MTT growth inhibition of multiple myeloma cells, 72 h; assay type: cell-based, human; conditions: MTT
Experimental: Multiple myeloma and lymphoma cell lines: RPMI8226 (multiple myeloma), purchased from Fuxiang Bio-tech Co. Ltd., Shanghai, China.
as §3

A549 (human lung cancer) = assay: MTT growth inhibition of human solid tumor cells, 72 h; assay type: cell-based
Experimental: (§4) Human solid tumor cell lines: Hep-2 (laryngeal carcinoma), A549 (human lung cancer), CaES-17 (esophageal cancer cell), PC-3 (prostate cancer), CNE (nasopharyngeal carcinoma cell), and SK-OV-3 (ovarian cancer cell), all of which are purchased from China Center For Type Culture Collection; RKO (human colon adenocarcinoma cell), MGC 803 (human gastric cancer cell), MG63 (osteosarcoma) and U87 MG (malignant glioma cell), all of which are purchased from Fuxiang Bio-tech Co. Ltd., Shanghai, China; PANC-1 (pancreatic cancer), Huh7 (human liver cancer cell), Becap37 (human breast cancer cell), and Hela (human cervical cancer cell), all of which are donated by Cancer Research Institute of Zhejiang University, China.
(§5) Obtaining 4000 well-growing human solid tumor cells and inoculating them into wells of a 96-well cell culture plate. The culture medium is DMEM High Glucose cell culture medium containing 10% fetal bovine serum. The plate is placed in a carbon dioxide cell incubator (5% CO2) at 37° C. and incubated for 24 hours. After adding the homoharringtonine derivatives of different concentration and mixing uniformly, the plate is placed in a carbon dioxide cell incubator (5% CO2) at 37° C. and incubated for 72 hours. Then the viable cell concentration is determined by the MTT method and the cell viability (%) after drug treatment is calculated. In this experiment, the cell viability of control group (not treated with any compound) is set as 100%.

[7] = system: Becap37 (human breast cancer cell); assay: as above; assay type: cell-based
Experimental: as §4, §5

[8] = system: CNE (nasopharyngeal carcinoma cell); assay: as above; assay type: cell-based; conditions: MTT
Experimental: as §4, §5

[9] = system: CaES-17 (esophageal cancer cell); assay: as above; assay type: cell-based
Experimental: as §4, §5

[10] = system: Hela (human cervical cancer cell); assay: as above; assay type: cell-based; conditions: MTT
Experimental: as §4, §5

[11] = system: Hep-2 (laryngeal carcinoma); assay: as above; assay type: cell-based
Experimental: as §4, §5

[12] = system: Huh7 (human liver cancer cell); assay: as above; assay type: cell-based
Experimental: as §4, §5

MG63 (osteosarcoma) = assay: as above; assay type: cell-based; conditions: MTT
Experimental: as §4, §5

[13] = system: MGC 803 (human gastric cancer cell); assay: as above; assay type: cell-based
Experimental: as §4, §5

[14] = system: PANC-1 (pancreatic cancer); assay: as above; assay type: cell-based; conditions: MTT
Experimental: as §4, §5

PC-3 (prostate cancer) = assay: as above; assay type: cell-based; conditions: MTT
Experimental: as §4, §5

[15] = system: RKO (human colon adenocarcinoma cell); assay: as above; assay type: cell-based; conditions: MTT
Experimental: as §4, §5

[16] = system: SK-OV-3 (ovarian cancer cell); assay: as above; assay type: cell-based; conditions: MTT
Experimental: as §4, §5

[17] = system: U87 MG (malignant glioma cell); assay: as above; assay type: cell-based
Experimental: as §4, §5

COC(=O)C[C@@](CCCC(C)(C)OC(=O)/C=C/c1ccco1)(OC(=O)/C=C/c1ccco1)C(=O)O[C@@H]1C(OC)=C[C@]23CCCN2CCc2cc4c(cc2[C@H]13)OCO4 [BS-HH-0022]
IC50 H9 [1]: 0.19 mg/L (≈ 0.242 µM)
IC90 H9 [1]: 0.4 mg/L (≈ 0.509 µM)
IC50 Jurkat [2]: 0.088 mg/L (≈ 0.112 µM)
IC90 Jurkat [2]: 10.13 mg/L (≈ 12.9 µM)
IC50 K562/adr [3]: 0.41 mg/L (≈ 0.522 µM)
IC90 K562/adr [3]: 1.84 mg/L (≈ 2.34 µM)
IC50 Kasumi-1 [4]: 0.063 mg/L (≈ 0.0802 µM)
IC90 Kasumi-1 [4]: 0.22 mg/L (≈ 0.28 µM)
IC50 NB4 [5]: 0.08 mg/L (≈ 0.102 µM)
IC90 NB4 [5]: 0.25 mg/L (≈ 0.318 µM)
IC50 RPMI8226 [6]: 0.12 mg/L (≈ 0.153 µM)
IC90 RPMI8226 [6]: 0.63 mg/L (≈ 0.802 µM)
IC50 A549 (A549 (human lung cancer)): 0.23 mg/L (≈ 0.293 µM)
IC90 A549 (A549 (human lung cancer)): >16 mg/L
IC50 Becap37 [7]: 0.23 mg/L (≈ 0.293 µM)
IC90 Becap37 [7]: 11.14 mg/L (≈ 14.2 µM)
IC50 CNE [8]: 0.21 mg/L (≈ 0.267 µM)
IC90 CNE [8]: 16 mg/L (≈ 20.4 µM)
IC50 CaES-17 [9]: 0.61 mg/L (≈ 0.776 µM)
IC90 CaES-17 [9]: >16 mg/L
IC50 Hela [10]: 0.33 mg/L (≈ 0.42 µM)
IC90 Hela [10]: 9.38 mg/L (≈ 11.9 µM)
IC50 Hep-2 [11]: 0.22 mg/L (≈ 0.28 µM)
IC90 Hep-2 [11]: >16 mg/L
IC50 Huh7 [12]: 0.13 mg/L (≈ 0.165 µM)
IC90 Huh7 [12]: 0.99 mg/L (≈ 1.26 µM)
IC50 MG 63 (MG63 (osteosarcoma)): 0.24 mg/L (≈ 0.305 µM)
IC90 MG 63 (MG63 (osteosarcoma)): 3.25 mg/L (≈ 4.14 µM)
IC50 MGC 803 [13]: 0.16 mg/L (≈ 0.204 µM)
IC90 MGC 803 [13]: 0.76 mg/L (≈ 0.967 µM)
IC50 PANC-1 [14]: 0.69 mg/L (≈ 0.878 µM)
IC90 PANC-1 [14]: 15.56 mg/L (≈ 19.8 µM)
IC50 PC-3 (PC-3 (prostate cancer)): 1.37 mg/L (≈ 1.74 µM)
IC90 PC-3 (PC-3 (prostate cancer)): >16 mg/L
IC50 RKO [15]: 0.044 mg/L (≈ 0.056 µM)
IC90 RKO [15]: 0.35 mg/L (≈ 0.445 µM)
IC50 SK-OV-3 [16]: 1.33 mg/L (≈ 1.69 µM)
IC90 SK-OV-3 [16]: >16 mg/L
IC50 U87 MG [17]: 0.16 mg/L (≈ 0.204 µM)
IC90 U87 MG [17]: 0.59 mg/L (≈ 0.751 µM)
